In paper PMC10178127, “Immunomodulatory Effects of the Pea Defensin Psd1 in the Caco-2/Immune Cells Co-Culture upon Candida albicans Infection” (International Journal of Molecular Sciences, 2023):
Values after ≈ are worked out from the molar mass of the structure shown. Like-named read-outs stand apart in the source and are kept apart here. One block for each compound: values may come before it. *1 amine or outer side, *2 acyl side, *3 side chain or, on linkers, in order; H or OH if unused. Where a SMILES comes first, the peptide text is derived from it. Bridges are numbered along the chain shown (N, C = ends). [ ]: non-standard residue; d: D form. The star is where a group is joined. hTyr(3S-OH,4S-OH,3'-OSO3H) = N[C@H](C(=O)O)[C@H](O)[C@@H](O)c1ccc(O)c(OS(=O)(=O)O)c1; pTerphenylCO(4''-OnC5H11) = CCCCCOc1ccc(-c2ccc(-c3ccc(C(=O)*)cc3)cc2)cc1; Orn(4R-OH,5R-OH) = O=C([C@H](C[C@@H](O)[C@@H](O)N[*:3])N[*:1])[*:2]; hTyr(3S-OH,4S-OH) = N[C@H](C(=O)O)[C@H](O)[C@@H](O)c1ccc(O)cc1; Pro(3S-OH,4S-Me) = C[C@H]1CN[C@H](C(=O)O)[C@H]1O; X1 = CCCCCOc1ccc(-c2cc(-c3ccc(C(=O)*)cc3)no2)cc1; Gln(3R-OH) = NC(=O)C[C@@H](O)[C@H](N)C(=O)O; Hyp = O=C(O)[C@@H]1C[C@@H](O)CN1

Assays:
Candida albicans v47a3 = test: Sensitivity to conventional antimycotics, broth dilution method; type: cell-based
Text: The clinical isolate of Candida albicans (v47a3) was collected from the patient with human immunodeficiency virus (HIV) infection and mucosal candidiasis and provided by G.N. Gabrichevsky Research Institute for Epidemiology and Microbiology (Moscow, Russia). This strain was susceptible to conventional antifungal agents except for a slight increase in the minimal inhibitory concentrations for triazole derivatives as was shown using the broth dilution method according to [31] (Supporting Materials, Tables S2 and S3). Strain stock was kept at −70 °C in 10% non-fat milk with 10% glycerol. Melittin (>98% pure) synthesized using a standard solid-phase method was provided by Dr. Sergey V. Sychev in M.M. Shemyakin and Yu.A. Ovchinnikov Institute of Bioorganic Chemistry of the Russian Academy of Sciences (Moscow, Russia).

Caco-2 cells = details: known model substrates of efflux pumps; no reference given; cited from earlier work
[1] = tested on: human peripheral blood mononuclear cells (PBMCs); test: Resazurin-based cell cytotoxicity assay; details: PBMCs, 24 h, read-out: concentration inducing 50% cell death
Experimental: The cytotoxic properties of the pea defensin Psd1 were investigated by resazurin-based cell cytotoxicity assay as previously described. In brief, PBMCs were seeded in 96-well plates at 2 × 10^6 cells per well in RPMI-1640 supplemented with 10% FBS and kept in a CO2 incubator for 24 h. After this, serial two-fold dilutions of defensin in a complete culture medium were added to the wells at final concentrations from 0.2 to 50 μM and the plates were incubated for 24 h. Resazurin (Sigma) was added at a final concentration of 70 µM, and the plates were incubated overnight (16–18 h). Fluorescent resorufin was registered using a 535/595 filter at PlateReader AF2200 (Eppendorf). Untreated cells were used as negative controls. Non-ionogenic detergent Triton X-100 and membrane-active peptide melittin from honeybee venom were used as positive controls. The cell viability was calculated according to the following equation: cell viability (%) = (Fsample/Fcontrol) × 100%. Cell lysis was monitored with an Olympus CKX41 microscope.

[2] = V47A3, MIC = 50% growth inhibition, broth dilution according to EUCAST E.DEF 7.3.2, read-out: MICs

MIC (Candida albicans v47a3; V47A3, MIC = >90% inhibition of fungal growth, broth dilution according to EUCAST E.DEF 7.3.2, read-out: MICs): 0.5 µg/mL (≈ 0.541 µM)
Compound: C[C@@H]1[C@H](O)[C@@H](C)/C=C/C=C/C=C/C=C/C=C/C=C/C=C/[C@H](O[C@@H]2O[C@H](C)[C@@H](O)[C@H](N)[C@@H]2O)C[C@@H]2O[C@](O)(C[C@@H](O)C[C@@H](O)[C@H](O)CC[C@@H](O)C[C@@H](O)CC(=O)O[C@H]1C)C[C@H](O)[C@H]2C(=O)O [Amphotericin B]

Compound: CCCCCOc1ccc(-c2ccc(-c3ccc(C(=O)N[C@H]4C[C@@H](O)[C@@H](O)NC(=O)[C@@H]5[C@@H](O)[C@@H](C)CN5C(=O)[C@H]([C@@H](C)O)NC(=O)[C@H]([C@H](O)[C@@H](O)c5ccc(O)cc5)NC(=O)[C@@H]5C[C@@H](O)CN5C(=O)[C@H]([C@@H](C)O)NC4=O)cc3)cc2)cc1 [Anidulafungin] ({pTerphenylCO(4''-OnC5H11)}-[Orn(4R-OH,5R-OH)]T[Hyp][hTyr(3S-OH,4S-OH)]T[Pro(3S-OH,4S-Me)]; lactam 1-C)
MIC (Candida albicans v47a3; V47A3, read-out: MICs): 0.03 µg/mL (≈ 0.0263 µM)

Compound: CC[C@H](C)C[C@H](C)CCCCCCCCC(=O)N[C@H]1C[C@@H](O)[C@@H](NCCN)NC(=O)[C@@H]2[C@@H](O)CCN2C(=O)[C@H]([C@H](O)CCN)NC(=O)[C@H]([C@H](O)[C@@H](O)c2ccc(O)cc2)NC(=O)[C@@H]2C[C@@H](O)CN2C(=O)[C@H]([C@@H](C)O)NC1=O [Caspofungin]
MIC (Candida albicans v47a3; V47A3, read-out: MICs): 0.06 µg/mL (≈ 0.0549 µM)

Compound: OC(Cn1cncn1)(Cn1cncn1)c1ccc(F)cc1F [Fluconazole]
MIC (Candida albicans v47a3; [2]): 8 µg/mL (≈ 26.1 µM)

MIC (Candida albicans v47a3; [2]): ≤ 0.06 µg/mL
Compound: Nc1[nH]c(=O)ncc1F [Flucytosine]

Compound: CCC(C)n1ncn(-c2ccc(N3CCN(c4ccc(OCC5COC(Cn6cncn6)(c6ccc(Cl)cc6Cl)O5)cc4)CC3)cc2)c1=O (stereo not shown) [Itraconazole]
MIC (Candida albicans v47a3; [2]): 0.12 µg/mL (≈ 0.17 µM)

Compound: CCCCCOc1ccc(-c2cc(-c3ccc(C(=O)N[C@H]4C[C@@H](O)[C@@H](O)NC(=O)[C@@H]5[C@@H](O)[C@@H](C)CN5C(=O)[C@H]([C@H](O)CC(N)=O)NC(=O)[C@H]([C@H](O)[C@@H](O)c5ccc(O)c(OS(=O)(=O)O)c5)NC(=O)[C@@H]5C[C@@H](O)CN5C(=O)[C@H]([C@@H](C)O)NC4=O)cc3)no2)cc1 [Micafungin] (X1-[Orn(4R-OH,5R-OH)]T[Hyp][hTyr(3S-OH,4S-OH,3'-OSO3H)][Gln(3R-OH)][Pro(3S-OH,4S-Me)]; lactam 1-C)
MIC (Candida albicans v47a3; V47A3, read-out: MICs): 0.008 µg/mL (≈ 0.0063 µM)

Compound: CC[C@@H]([C@H](C)O)n1ncn(-c2ccc(N3CCN(c4ccc(OC[C@@H]5CO[C@@](Cn6cncn6)(c6ccc(F)cc6F)C5)cc4)CC3)cc2)c1=O [Posaconazole]
MIC (Candida albicans v47a3; [2]): 0.12 µg/mL (≈ 0.171 µM)

Compound: C[C@@H](c1ncncc1F)[C@](O)(Cn1cncn1)c1ccc(F)cc1F [Voriconazole]
MIC (Candida albicans v47a3; [2]): 0.5 µg/mL (≈ 1.43 µM)

Compound: C[C@H]1O[C@@H](O[C@H]2[C@@H](O)C[C@H](O[C@H]3[C@@H](O)C[C@H](O[C@H]4CC[C@@]5(C)[C@H](CC[C@@H]6[C@@H]5C[C@@H](O)[C@]5(C)[C@@H](C7=CC(=O)OC7)CC[C@]65O)C4)O[C@@H]3C)O[C@@H]2C)C[C@H](O)[C@@H]1O [digoxin]
efflux ratio (ER) (Caco-2 cells): > 10

Compound: O=C1c2c(O)ccc(O)c2C(=O)c2c(NCCNCCO)ccc(NCCNCCO)c21 [mitoxantrone]
efflux ratio (ER) (Caco-2 cells): > 10

Compound: CC[C@]1(O)C[C@@H]2CN(CCc3c([nH]c4ccccc34)[C@@](C(=O)OC)(c3cc4c(cc3OC)N(C)[C@H]3[C@@](O)(C(=O)OC)[C@H](OC(C)=O)[C@]5(CC)C=CCN6CC[C@]43[C@@H]65)C2)C1 [vinblastine]
efflux ratio (ER) (Caco-2 cells): > 10

Compound: melittin [reference compound]
IC50 [1]: 6.25 µM
